Laboratory results published in patent US10881642B2, “Autophagy enhancer and use thereof” (Industry-Academic Cooperation Foundation, Yonsei University, priority 2016, dated 2021).
“Also recorded” adds a separate entry of the source.

Test system: TFEB
Assay: TFEB nuclear translocation in TFEB-GFP HeLa cells
Type: cell-based
Conditions: 4 hrs
Protocol: FIG. 3A is the graph showing the percentage of nuclear translocated TFEB for which TFEB-GFP HeLa cells were treated with MSL compound for 4 hrs and then nuclei of the cells were stained with DAPI. FIG. 3B is the results of the experiments in which HeLa cells were incubated in the presence of MSL compound or vehicle control for 24 hrs and then the acidic vesicular organelles formed were stained with acridine orange. FIG. 3C is the results of the experiments in which TFEB-GFP HeLa cells were treated with MSL compound or vehicle control for 4 hrs and then the cells were immunoblotted with the antibodies indicated. FIG. 3D and FIG. 3E is the result of measuring the calcineurin activity in the lysates of Hepa1c1c7 cells treated with the compounds indicated. Error bars, S.D. **, P<0.01;***, P<0.001.
FIG. 10 is the result of the experiments using compound of formula 2 (hereinafter referred to as MSL-7) of the present disclosure as an autophagic enhancer. FIG. 10A is the result of immuneblot using the antibodies indicated using Hela cells treated with MSL or MSL-7. FIG. 10B is the result of measuring the viability of Hela cells treated with vehicle control or various concentration of MSL-7 (50-100 μM) for 48 hrs. FIG. 10C is the result of DAPI stained nuclei of TFEB-GFP HeLa cells which were treated with vehicle control or MSL-7 for 4 hrs. The graph indicates the percentage of TFEB translocated into the nuclei. Error bars, S.D. *, P<0.05; **, P<0.01; ***, P<0.001.
Screening of autophagy enhancer. […] Luciferase assay. […] Firefly luciferase was determined after mixing 5 μl of lysate with 25 μl of Luciferase Assay Reagent II. Renilla luciferase was then determined after further addition of 20 ul of Stop&Glo Reagent. […] Cytotoxicity was determined by the measurement of LDH release in cell culture media using the LDH kit (Roche), according to the protocol from the manufacturer. […] Imaging and image quantification. […] Formation of acidic vesicular organelles was quantitated by staining the cells with acridine orange (Invitrogen, 5 ug/ml, 10 min). […]

| Structure (SMILES) | TFEB nuclear translocation | percentage of nuclei showing TFEB positivity (compared to untreated cells) |
| --- | --- | --- |
| COc1oc(-c2ccccc2Cl)nc1S(=O)(=O)c1ccccc1 [MSL-7, 2-(2-chlorophenyl)-5-methoxy-4-(phenylsulfonyl) oxazole] | induced nuclear translocation of TFEB; also recorded: in a dose-dependent manner | – |
| CSc1oc(-c2ccccc2)nc1S(=O)(=O)c1ccc(F)cc1 [MSL] | translocated to the nuclei in the majority of MSL-treated HeLa cells | greatly increased |
